Experimental data taken from PubChem BioAssay AID1963833 (Molecular Pharmacology Branch, DTP, NCI, 2024).

System: 883617-216-R-J1-PDC complex spheroid viability
Assay: Anticancer human tumor 883617-216-R-J1-PDC patient-derived bladder carcinoma cell line growth inhibition [POLQ]
Conditions: for IC50: curve of first compound; for viability, T/C: stronger effect = lower value
Outline: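 PDC + HUVEC + MSC complex spheroids; POLQ inhibitors ± partner drugs; top conc. at/near clinical Cmax, else 10 microM (SN-38 1 microM), half-log dilutions; 37 degrees C, 5% CO2.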

[1] = second compound 0.0316 µM, first compound 0.00316 µM
[2] = second compound 0.0316 µM, first compound 0.01 µM
[3] = second compound 0.0316 µM, first compound 0.0316 µM
[4] = second compound 0.0316 µM, first compound 0.1 µM
[5] = second compound 0.0316 µM, first compound 0.316 µM
[6] = second compound 0.0316 µM, first compound 1 µM
[7] = second compound 0.1 µM, first compound 0.00316 µM
[8] = second compound 0.1 µM, first compound 0.01 µM
[9] = second compound 0.1 µM, first compound 0.0316 µM
[10] = second compound 0.1 µM, first compound 0.1 µM
[11] = second compound 0.1 µM, first compound 0.316 µM
[12] = second compound 0.1 µM, first compound 1 µM
[13] = second compound 0.316 µM, first compound 0.00316 µM
[14] = second compound 0.316 µM, first compound 0.01 µM
[15] = second compound 0.316 µM, first compound 0.0316 µM
[16] = second compound 0.316 µM, first compound 0.1 µM
[17] = second compound 0.316 µM, first compound 0.316 µM
[18] = second compound 0.316 µM, first compound 1 µM
[19] = second compound 1 µM, first compound 0.00316 µM
[20] = second compound 1 µM, first compound 0.01 µM
[21] = second compound 1 µM, first compound 0.0316 µM
[22] = second compound 1 µM, first compound 0.1 µM
[23] = second compound 1 µM, first compound 0.316 µM
[24] = second compound 1 µM, first compound 1 µM
[25] = second compound 3.16 µM, first compound 0.00316 µM
[26] = second compound 3.16 µM, first compound 0.01 µM
[27] = second compound 3.16 µM, first compound 0.0316 µM
[28] = second compound 3.16 µM, first compound 0.1 µM
[29] = second compound 3.16 µM, first compound 0.316 µM
[30] = second compound 3.16 µM, first compound 1 µM
[31] = second compound 10 µM, first compound 0.00316 µM
[32] = second compound 10 µM, first compound 0.01 µM
[33] = second compound 10 µM, first compound 0.0316 µM
[34] = second compound 10 µM, first compound 0.1 µM
[35] = second compound 10 µM, first compound 0.316 µM
[36] = second compound 10 µM, first compound 1 µM
[37] = second compound 0.0316 µM, first compound 3.16 µM
[38] = second compound 0.0316 µM, first compound 10 µM
[39] = second compound 0.1 µM, first compound 3.16 µM
[40] = second compound 0.1 µM, first compound 10 µM
[41] = second compound 0.316 µM, first compound 3.16 µM
[42] = second compound 0.316 µM, first compound 10 µM
[43] = second compound 1 µM, first compound 3.16 µM
[44] = second compound 1 µM, first compound 10 µM
[45] = second compound 3.16 µM, first compound 3.16 µM
[46] = second compound 3.16 µM, first compound 10 µM
[47] = second compound 10 µM, first compound 3.16 µM
[48] = second compound 10 µM, first compound 10 µM
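Further: spheroids exposed to compounds for seven days before readout.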
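Wherever viability, T/C is given: 100% = DMSO vehicle control viability.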

COc1cccc(OCCCN)c1-c1cc(Nc2cnc(C#N)cn2)n[nH]1 + Nc1ccc(C#CCN(C(=O)Cc2ncc(C(F)(F)F)cc2C(F)(F)F)c2ccc(F)cc2)nn1
IC50 (second compound 0.0316 µM): 77.4 nM | IC50 (second compound 0.1 µM): 47.2 nM | IC50 (second compound 0.316 µM): 87.1 nM | IC50 (second compound 1 µM): 120 nM | IC50 (second compound 3.16 µM): 73.3 nM | IC50 (second compound 10 µM): 85.6 nM | viability, T/C [1]: 111% | viability, T/C [2]: 77% | viability, T/C [3]: 67% | viability, T/C [4]: 42.8% | viability, T/C [5]: 37.7% | viability, T/C [6]: 35.4% | viability, T/C [7]: 96.9% | viability, T/C [8]: 95.6% | viability, T/C [9]: 55.2% | viability, T/C [10]: 43.6% | viability, T/C [11]: 41.4% | viability, T/C [12]: 33.7% | viability, T/C [13]: 99.3% | viability, T/C [14]: 91.3% | viability, T/C [15]: 57.4% | viability, T/C [16]: 52.6% | viability, T/C [17]: 40.8% | viability, T/C [18]: 31.9% | viability, T/C [19]: 95.3% | viability, T/C [20]: 78.2% | viability, T/C [21]: 64.8% | viability, T/C [22]: 53% | viability, T/C [23]: 40% | viability, T/C [24]: 28.6% | viability, T/C [25]: 85.9% | viability, T/C [26]: 89.8% | viability, T/C [27]: 67.1% | viability, T/C [28]: 39.5% | viability, T/C [29]: 47.1% | viability, T/C [30]: 44.5% | viability, T/C [31]: 109% | viability, T/C [32]: 89.8% | viability, T/C [33]: 63.6% | viability, T/C [34]: 48.8% | viability, T/C [35]: 39.5% | viability, T/C [36]: 36.2%

O=C(Nc1ccc(O)c(NS(=O)(=O)c2ccc(F)cc2)c1)c1ccc(-c2ccccc2)cc1 + Nc1ccc(C#CCN(C(=O)Cc2ncc(C(F)(F)F)cc2C(F)(F)F)c2ccc(F)cc2)nn1
IC50 (second compound 0.0316 µM): > 10000 nM | IC50 (second compound 0.1 µM): > 10000 nM | IC50 (second compound 0.316 µM): > 10000 nM | IC50 (second compound 1 µM): > 10000 nM | IC50 (second compound 3.16 µM): > 10000 nM | IC50 (second compound 10 µM): > 10000 nM | viability, T/C [3]: 91.5% | viability, T/C [4]: 92.5% | viability, T/C [5]: 102% | viability, T/C [6]: 82.8% | viability, T/C [37]: 79.3% | viability, T/C [38]: 71% | viability, T/C [9]: 106% | viability, T/C [10]: 104% | viability, T/C [11]: 90.1% | viability, T/C [12]: 84.1% | viability, T/C [39]: 88.4% | viability, T/C [40]: 70.1% | viability, T/C [15]: 90.4% | viability, T/C [16]: 102% | viability, T/C [17]: 97.6% | viability, T/C [18]: 85.5% | viability, T/C [41]: 81.7% | viability, T/C [42]: 72.5% | viability, T/C [21]: 91.8% | viability, T/C [22]: 95.4% | viability, T/C [23]: 96.3% | viability, T/C [24]: 84.3% | viability, T/C [43]: 87.9% | viability, T/C [44]: 66.1% | viability, T/C [27]: 101% | viability, T/C [28]: 101% | viability, T/C [29]: 104% | viability, T/C [30]: 88.1% | viability, T/C [45]: 86.5% | viability, T/C [46]: 72.2% | viability, T/C [33]: 116% | viability, T/C [34]: 108% | viability, T/C [35]: 115% | viability, T/C [36]: 97.8% | viability, T/C [47]: 117% | viability, T/C [48]: 72.6%

CNCc1ccc(-c2[nH]c3cc(F)cc4c3c2CCNC4=O)cc1 + Nc1ccc(C#CCN(C(=O)Cc2ncc(C(F)(F)F)cc2C(F)(F)F)c2ccc(F)cc2)nn1
IC50 (second compound 0.0316 µM): > 10000 nM | IC50 (second compound 0.1 µM): > 10000 nM | IC50 (second compound 0.316 µM): > 10000 nM | IC50 (second compound 1 µM): > 10000 nM | IC50 (second compound 3.16 µM): > 10000 nM | IC50 (second compound 10 µM): > 10000 nM | viability, T/C [3]: 93.8% | viability, T/C [4]: 86.4% | viability, T/C [5]: 83.8% | viability, T/C [6]: 101% | viability, T/C [37]: 110% | viability, T/C [38]: 92.1% | viability, T/C [9]: 96.9% | viability, T/C [10]: 79.8% | viability, T/C [11]: 96.8% | viability, T/C [12]: 107% | viability, T/C [39]: 102% | viability, T/C [40]: 95.2% | viability, T/C [15]: 104% | viability, T/C [16]: 81.3% | viability, T/C [17]: 88.4% | viability, T/C [18]: 96.8% | viability, T/C [41]: 104% | viability, T/C [42]: 89.8% | viability, T/C [21]: 95.5% | viability, T/C [22]: 105% | viability, T/C [23]: 106% | viability, T/C [24]: 113% | viability, T/C [43]: 104% | viability, T/C [44]: 76.1% | viability, T/C [27]: 92.4% | viability, T/C [28]: 102% | viability, T/C [29]: 91.7% | viability, T/C [30]: 103% | viability, T/C [45]: 102% | viability, T/C [46]: 98.1% | viability, T/C [33]: 116% | viability, T/C [34]: 107% | viability, T/C [35]: 120% | viability, T/C [36]: 101% | viability, T/C [47]: 127% | viability, T/C [48]: 102%

Cn1ncnc1[C@H]1c2n[nH]c(=O)c3cc(F)cc(c23)N[C@@H]1c1ccc(F)cc1 + Nc1ccc(C#CCN(C(=O)Cc2ncc(C(F)(F)F)cc2C(F)(F)F)c2ccc(F)cc2)nn1
IC50 (second compound 0.0316 µM): > 100 nM | IC50 (second compound 0.1 µM): > 100 nM | IC50 (second compound 0.316 µM): > 100 nM | IC50 (second compound 1 µM): > 100 nM | IC50 (second compound 3.16 µM): > 100 nM | IC50 (second compound 10 µM): > 100 nM | viability, T/C (second compound 0.0316 µM, first compound 0.000316 µM): 87.9% | viability, T/C (second compound 0.0316 µM, first compound 0.001 µM): 94.4% | viability, T/C [1]: 99.1% | viability, T/C [2]: 82.4% | viability, T/C [3]: 72% | viability, T/C [4]: 78.9% | viability, T/C (second compound 0.1 µM, first compound 0.000316 µM): 93.8% | viability, T/C (second compound 0.1 µM, first compound 0.001 µM): 97.5% | viability, T/C [7]: 97.7% | viability, T/C [8]: 79.7% | viability, T/C [9]: 85.4% | viability, T/C [10]: 80.7% | viability, T/C (second compound 0.316 µM, first compound 0.000316 µM): 82.9% | viability, T/C (second compound 0.316 µM, first compound 0.001 µM): 111% | viability, T/C [13]: 91.9% | viability, T/C [14]: 87.9% | viability, T/C [15]: 83% | viability, T/C [16]: 77.5% | viability, T/C (second compound 1 µM, first compound 0.000316 µM): 91.9% | viability, T/C (second compound 1 µM, first compound 0.001 µM): 94.4% | viability, T/C [19]: 104% | viability, T/C [20]: 93.1% | viability, T/C [21]: 84.5% | viability, T/C [22]: 81.8% | viability, T/C (second compound 3.16 µM, first compound 0.000316 µM): 101% | viability, T/C (second compound 3.16 µM, first compound 0.001 µM): 112% | viability, T/C [25]: 90.2% | viability, T/C [26]: 109% | viability, T/C [27]: 86% | viability, T/C [28]: 67.8% | viability, T/C (second compound 10 µM, first compound 0.000316 µM): 100% | viability, T/C (second compound 10 µM, first compound 0.001 µM): 102% | viability, T/C [31]: 102% | viability, T/C [32]: 95.8% | viability, T/C [33]: 118% | viability, T/C [34]: 92.2%
